Measured values published in patent publication US4234736A, “Antiandrogenic and schistosomicidal imidazolidine derivatives” (Hoffmann-La Roche Inc., priority 1977, dated 1980).
Several values for one entry are separate records, joined by “and”; a condition that tells them apart may be missing. Equal values may be shown once.

Experiments:
[1] = test system: ventral prostate; test: Antiandrogenic test: ventral prostate weight in testosterone propionate-treated rats; format: in vivo, rat; conditions: sterilized male rats, 5 per group; s.c. daily for 7 days; compound 10 mg/kg + testosterone propionate 0.5 mg/kg, or testosterone propionate 0.5 mg/kg alone
Method: (§1) The antiandrogenic activity of the compositions of this invention can be determined in the following test:
(§2) 10 mg. per kg of the composition together with 0.5 mg. per kg. of testosterone propionate are administered s.c. daily for 7 days to each of 5 male, sterilized rats. Two control groups of 5 rats each were also used. One control group received no treatment. The second control group received only 0.5 mg. per kg. of testosterone propionate.
(§3) Testosterone propionate causes an increase in weight in the ventral prostrate and the seminal vesicle. Thus, a decrease in weight in the ventral prostrate and the seminal vesicle when a composition containing a compound of formula I is given to the rats in combination with testosterone propionate is a measure of the antiandrogenic activity of that compound.

[2] = test system: seminal vesicle; test: Antiandrogenic test: seminal vesicle weight in testosterone propionate-treated rats; format: in vivo, rat; conditions: sterilized male rats, 5 per group; s.c. daily for 7 days; compound 10 mg/kg + testosterone propionate 0.5 mg/kg, or testosterone propionate 0.5 mg/kg alone
Method: as §1, §2, §3

[3] = test system: Schistosoma mansoni; test: Schistosomicidal activity in infected mice (VD50); format: in vivo; conditions: po, 1008 h, p.o., administered 5 times (5 successive days), from 42 days after infection, Probit method, read-out: VD50 (vermicidal dose 50%: the dose which kills 50% of the worm pairs)
Method: Mice were infected subcutaneously with 60 cercariae of Schistosoma mansoni. 42 days after the infection, the animals were treated perorally on 5 successive days with the compositions to be tested 5-10 mice were used for each composition and dosage rate (mg/kg). 10 untreated mice serve as the control. The mice were autopsied either 6 days or 2-3 weeks after conclusion of the treatment. Worm pairs in mesenteric veins, the portal vein and the liver were removed and counted. The percent distribution of the worm pairs in mesenteric veins, the portal vein and the liver was calculated and the condition of the worms (living and dead) recorded. The schistosomicidal activity of the compositions containing a compound of formula I is shown both by an increased proportion of worms in the vessels of the liver and in the appearance of dead worms.
For the evaluation, the percentage proportions of living and dead worm pairs in the vessels of the liver both in infected, treated animals and in infected but untreated control animals were compared. The determination of the VD50 (vermicidal dose 50%: the dose which kills 50% of the worm pairs) is carried out by the Probit method.

[4] = LD50 (acute toxicity), p.o.; conditions: in vivo, po, species not given

CCC(=O)O[C@H]1CC[C@H]2[C@@H]3CCC4=CC(=O)CC[C@]4(C)[C@H]3CC[C@]12C [Testosterone propionate, reference compound]
Ventral prostate weight [1]: 140 ± 11 mg and 121 ± 13 mg | Seminal vesicle weight [2]: 88 ± 5 mg and 100 ± 9 mg

CC1(C)NC(=O)N(c2ccc(Cl)c(Cl)c2)C1=O [3-(3,4-Dichloro-phenyl)-5,5-dimethyl-hydantoin]
Ventral prostate weight [1]: 36 ± 4 mg | Seminal vesicle weight [2]: 29 ± 2 mg | ED50 [3]: 58 mg/kg | LD50 [4]: 2500 to 5000 mg/kg

CC1(C)NC(=O)N(c2cccc(C(F)(F)F)c2)C1=O [3-(3-Trifluoromethyl-phenyl)-5,5-dimethyl-hydantoin]
LD50 [4]: 625 to 1250 mg/kg

CC1(C)NC(=O)N(c2ccc(F)cc2)C1=O [3-(4-Fluoro-phenyl)-5,5-dimethyl-hydantoin]
ED50 [3]: 69 mg/kg | LD50 [4]: 600 to 1200 mg/kg

COC(=O)C(C)(C)NC(=O)Nc1ccc(Cl)c(C(F)(F)F)c1 [N-[(3-Trifluoromethyl-4-chloro-phenyl)-carbamoyl]-2-methylalanine methyl ester]
Ventral prostate weight [1]: 61 ± 6 mg | Seminal vesicle weight [2]: 47 ± 11 mg | ED50 [3]: 74 mg/kg | LD50 [4]: > 5000 mg/kg

CC1(C)NC(=O)N(c2ccc(Cl)cc2)C1=O [3-(4-Chloro-phenyl)-5,5-dimethyl-hydantoin]
ED50 [3]: 77 mg/kg | LD50 [4]: 1250 to 2500 mg/kg
